Assay results published in patent EP0233461B2, “4,5,6-Substituted-2-pyrimidinamines” (AMERICAN CYANAMID COMPANY, priority 1986, dated 1987).
Structures can show the parent of a compound that is named as a salt. Where two headings read alike, the source gives them in different places.

System: human basophils
Assay: Inhibition of histamine release from immunologically stimulated human basophils
Type: cell-based
Settings: concentration causing 50% inhibition of histamine release, by linear regression, active if IC50 ≦ 48 µM
Summary of the method: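 Leukocytes from sedimented human blood, washed in Tris-A and resuspended in Tris-ACM, were challenged with anti-IgE or antigen, with or without compound, for 60 min at 37 °C. Released histamine was measured fluorometrically after OPT derivatization and expressed as percent of total (perchloric acid lysate), corrected for spontaneous release.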

SMILES	IC50 (Homo sapiens) [nM]	IC50 (read-out: IC50) [nM]
c1ccc(Nc2nccc(-c3cccnc3)n2)cc1 [N-Phenyl-4-(3-pyridinyl)-2-pyrimidinamine, sulfate]	3000	–
c1ccc(Nc2nccc(-c3ccncc3)n2)cc1 [N-Phenyl-4-(4-pyridinyl)-2-pyrimidinamine]	–	900
